Experimental findings from EP1984353B1, “AURORA KINASE MODULATORS AND METHOD OF USE” (Amgen, Inc, priority 2006, dated 2007) are described below.

The target of test [1] is T1, AuroraA-TPX2 (Homo sapiens, UniProt O14965).
T1 construct: 20 µL of AuroraA-TPX2 KD GST; GST
T1 sequence (O14965 133-383 limits assumed): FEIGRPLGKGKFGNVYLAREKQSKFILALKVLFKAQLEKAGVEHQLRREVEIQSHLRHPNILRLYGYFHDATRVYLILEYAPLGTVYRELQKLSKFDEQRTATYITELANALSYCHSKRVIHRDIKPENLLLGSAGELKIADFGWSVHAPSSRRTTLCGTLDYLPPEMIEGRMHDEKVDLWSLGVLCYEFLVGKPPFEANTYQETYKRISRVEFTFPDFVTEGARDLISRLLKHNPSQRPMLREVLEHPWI
T1 sequence (Q9ULW0 1-43 partner limits assumed): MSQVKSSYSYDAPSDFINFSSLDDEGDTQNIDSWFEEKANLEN
Kind of test: AuroraA-TPX2 Homogeneous Time Resolved Fluorescent (HTRF) kinase assay. Format: biochemical. The protocol: AuroraA-TPX2-Homogeneous Time Resolved Fluorescent (HTRF) Kinase Assay:
The Aurora-A HTRF assay begins with Aurora-A in the presence of ATP phosphorylating the biotinylated peptide PLK. The reaction incubates for about 120 min. Detection reagents are added to quench the reaction. These agents stop the reaction by diluting out the enzyme and chelating the metals due to the presence of EDTA. After addition, the assay is incubated overnight to allow the detection reagents to equilibrate.
The final concentration of PLK is about 1 µM. […] Buffer conditions are as follows: 60mM HEPES pH 7.5, 25mM NaCl, 10mM MgCl, 2mM DTT, 0.05% BSA.
The assay is quenched and stopped with 160 µL, of detection reagent. Detection reagents are as follows: Buffer made of 50mM Tris, pH 7.5, 100mM NaCl, 3mM EDTA, 0.05% BSA, 0.1% Tween20. Added to this buffer prior to reading is Steptavidin allophycocyanin (SA-APC) at a final conc in the assay of 0.0005 mg/mL, and europilated anti-phosphoPLK Ab (Eu-anti-PLK) at a final conc of 0.02 nM.
The assay plate is read in either a Discovery or a RubyStar. The eu-anti-PLK is excited at 320 nm and emits at 615 nm to excite the SA-APC which in turn emits at 655 nm.

In test [2] the target is T2, AuroraB (Homo sapiens, UniProt Q96GD4).
T2 construct: 20 µL of AuroraB FL His; His
T2 sequence (Q96GD4 whole entry): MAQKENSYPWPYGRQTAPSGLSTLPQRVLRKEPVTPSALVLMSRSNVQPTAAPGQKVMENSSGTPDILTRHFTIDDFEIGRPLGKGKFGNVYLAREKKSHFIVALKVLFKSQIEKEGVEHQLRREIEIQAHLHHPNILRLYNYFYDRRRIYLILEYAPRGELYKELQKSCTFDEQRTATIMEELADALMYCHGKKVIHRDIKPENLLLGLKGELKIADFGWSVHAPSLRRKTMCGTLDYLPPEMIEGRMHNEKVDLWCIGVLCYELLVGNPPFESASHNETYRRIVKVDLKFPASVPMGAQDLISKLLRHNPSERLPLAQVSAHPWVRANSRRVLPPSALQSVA
Kind of test: AuroraB Homogeneous Time Resolved Fluorescent (HTRF) kinase assay. Format: biochemical. The protocol:
AuroraB-Homogeneous Time Resolved Fluorescent (HTRF) Kinase Assay:
The AuroraB HTRF assay begins with AuroraB in the presence of ATP phosphorylating the biotinylated peptide Histone H3. The reaction incubates for about 90 min. the reaction is quentched by addition of detection reagents, which stop the reaction by diluting out the enzyme and chelating the metals due to the presence of EDTA. After addition, the assay is incubated for about 60 min to allow detection reagents to equilibrate.
The AuroraB HTRF assay comprises 1 µL of compound in 100% DMSO, 20 µL of ATP and biotinylated Histone H3, and 20 µL of AuroraB FL His for a final volume of 41 µL. The final concentration of Histone H3 is 0.1 µM. The final concentration of ATP is 23 µM (Km(app) = 23 µM+/-2.6) and the final concentration of AuroraB is 400 pM. Buffer conditions are as follows: 50mM HEPES pH 7.5, 5mM NaCl, 0.5mM MgCl, 0.5mM MnCl, 2mM DTT, 0.05% BSA.
The assay is quenched and stopped with 160 µL of detection reagent. Detection reagents are as follows: Buffer made of 50mM Tris, pH 7.5, 100mM NaCl, 3mM EDTA, 0.05% BSA, 0.1% Tween20. Added to this buffer prior to reading is Steptavidin allophycocyanin (SA-APC) at a final conc in the assay of 0.001 mg/mL, and europilated anti-phosphoHistoneH3 Ab (Eu-anti-HisH3) at a final conc of 0.064 nM.
The assay plate is read in either a Discovery or a RubyStar. The eu-anti-HisH3 is excited at 320 nm and emits at 615 nm to excite the SA-APC which in turn emits at 655 nm. The ratio of SA-APC at 655 nm (excited due to close proximity to the Eu-anti-HisH3 because of phosphorylation of the peptide) to free Eu-anti-HisH3 at 615 nm will give substrate phosphorylation.

The mark [3] stands for this setting: average, given as class symbols, read-out: AurA/TP X2_ IC50_IP (Avg).
[4] abbreviates: average, given as class symbols, read-out: AurB_ _IC50_IP (Avg).
The mark [5] stands for this setting: read-out: average activity in the Aurora kinase A HTRF assay.
The mark [6] stands for this setting: read-out: average activity in the Aurora kinase B HTRF assay.
The mark [7] stands for this setting: read-out: average inhibitory activity (IC50) in the Aurora kinase A HTRF assay.

pIC50: −log10 of the molar value. Read-outs that look alike come from different tables or passages of the source.

Regarding `Nc1nccc(-c2cccnc2Oc2ccc(Nc3nnc(-c4ccccc4OC(F)(F)F)c4ccccc34)cn2)n1` [compound 383, N-(6-((3-(2-amino-4-pyrimidinyl)-2-pyridinyl)oxy)-3-pyridinyl)-4-(2-((trifluoromethyl)oxy)phenyl)-1-phthalazinamine], the pIC50 in test [1] (setting [3]) was 5.60 to 6.30; in test [2] (setting [4]), no less than 7.00.

For the compound `COc1ccc(CNc2cc(-c3ccccc3Oc3ncc(Nc4nnc(-c5ccccc5)c5ccccc45)cn3)ccn2)cc1` [compound 290, N-(2-((2-(2-(((4-(methyloxy)phenyl)methyl)amino)-4-pyridinyl)phenyl)oxy)-5-pyrimidinyl)-4-phenyl-1-phthalazinamine], the pIC50 in test [2] (setting [4]) is 5.60 to 6.30.

As to `CCc1cc(-c2ccccc2)nnc1Nc1ccc(Oc2ncccc2-c2ccnc(NCCCN3CCNCC3)n2)cc1` [compound 457, 4-ethyl-6-phenyl-N-(4-((3-(2-((3-(1-piperazinyl)propyl)amino)-4-pyrimidinyl)-2-pyridinyl)oxy)phenyl)-3-pyridazinamine], the pIC50 in test [1] (setting [3]) and in test [2] (setting [4]) was no less than 7.00 throughout.

In the case of `CC(C)c1nnc(Nc2ccc(Oc3ncccc3-c3ccnc(N)n3)cc2)c2ccccc12` [compound 273, N-(4-((3-(2-amino-4-pyrimidinyl)-2-pyridinyl)oxy)phenyl)-4-(1-methylethyl)-1-phthalazinamine], the figures for the pIC50 in test [1] (setting [3]) and in test [2] (setting [4]) were 6.30 to 7.00 and no less than 7.00, respectively.

Regarding `Nc1nccc(-c2cccnc2Oc2ccc(Nc3nnc(-c4ccc(CN5CCCC5)cc4)c4ccccc34)cc2)n1` [Example Method E, N-(4-(3-(2-aminopyrimidin-4-yl)pyridin-2-yloxy)phenyl)-4-(4-(pyrrolidin-1-ylmethyl)phenyl)phthalazin-1-amine], the pIC50 in test [1] (setting [5]) and in test [2] (setting [6]) was no less than 6.00 throughout.

As for `NC(=O)c1n[nH]cc1-c1cccnc1Oc1ccc(Nc2nnc(-c3ccccc3)c3ccccc23)cc1` [Example 241, 4-(2-(4-(4-phenylphthalazin-1-ylamino)phenoxy)pyridin-3-yl)-1H-pyrazole-3-carboxamide], the pIC50 in test [1] (setting [5]) and in test [2] (setting [6]) was no less than 6.00 each time.

For `CC1CN(c2nnc(Nc3ccc(Oc4ncccc4-c4ccnc(N)n4)cc3)c3ccccc23)CCN1C` (stereo not shown) [compound 395, N-(4-((3-(2-amino-4-pyrimidinyl)-2-pyridinyl)oxy)phenyl)-4-(3,4-dimethyl-1-piperazinyl)-1-phthalazinamine], the pIC50 in test [1] (setting [3]) and in test [2] (setting [4]) was no less than 7.00 throughout.

Turning to `Nc1nccc(-c2cccnc2Oc2ccc(Nc3nnc(N4CCN5CCCC5C4)c4ccccc34)cc2)n1` (stereo not shown) [compound 394, N-(4-((3-(2-amino-4-pyrimidinyl)-2-pyridinyl)oxy)phenyl)-4-(hexahydropyrrolo[1,2-a]pyrazin-2(1H)-yl)-1-phthalazinamine], the pIC50 in test [1] (setting [3]) and in test [2] (setting [4]) was no less than 7.00 throughout.

`Nc1nccc(-c2cccnc2Oc2ccc(Nc3ncc(-c4ccc(Cl)cc4)c4ccccc34)cc2)n1` [compound 265, N-(4-((3-(2-amino-4-pyrimidinyl)-2-pyridinyl)oxy)phenyl)-4-(4-chlorophenyl)-1-isoquinolinamine]: the pIC50 in test [1] (setting [3]) and in test [2] (setting [4]) was no less than 7.00 in each case.

With `CCc1cc(-c2ccccc2)nnc1Nc1ccc(Oc2ncccc2-c2ccnc(NCCCN3CCCC3)n2)cc1` [compound 459, 4-ethyl-6-phenyl-N-(4-((3-(2-((3-(1-pyrrolidinyl)propyl)amino)-4-pyrimidinyl)-2-pyridinyl)oxy)phenyl)-3-pyridazinamine], the pIC50 in test [1] (setting [3]) is 6.30 to 7.00; in test [2] (setting [4]) it was no less than 7.00.

Turning to `Cc1ccc(-c2nnc(Nc3ccc(Oc4ncccc4-c4ccnc(N)n4)cc3)c3ccccc23)nc1` [compound 396, N-(4-((3-(2-amino-4-pyrimidinyl)-2-pyridinyl)oxy)phenyl)-4-(5-methyl-2-pyridinyl)-1-phthalazinamine], the pIC50 is 8.33 in test [1] (average, given as numbers, unit inferred, read-out: AurA/TP X2_ IC50_IP (Avg)) and 9.10 in test [2] (average, given as numbers, unit inferred, read-out: AurB_ _IC50_IP (Avg)).

As for `CNc1nccc(-c2cccnc2Oc2ccc(Nc3nnc(N4CCCCC4)c4ccccc34)cn2)n1` [Example 68, N-(6-((3-(2-(methylamino)-4-pyrimidinyl)-2-pyridinyl)oxy)-3-pyridinyl)-4-(1-piperidinyl)-1-phthalazinamine], in test [1] (setting [7]), the pIC50 was greater than 6.30.

On to `Oc1nccc(-c2cccnc2Oc2ccc(Nc3nnc(-c4ccccc4)c4ccccc34)cc2)n1` [compound 325, 4-(2-((4-((4-phenyl-1-phthalazinyl)amino)phenyl)oxy)-3-pyridinyl)-2-pyrimidinol], for which, in test [1] (setting [3]), the pIC50 was 5.60 to 6.30.

For the compound `Nc1nccc(-c2cccnc2Oc2ccc(Nc3nnc(-c4cccc(CNCCO)c4)c4ccccc34)cc2)n1` [compound 413, 2-(((3-(4-((4-((3-(2-amino-4-pyrimidinyl)-2-pyridinyl)oxy)phenyl)amino)-1-phthalazinyl)phenyl)methyl)amino)ethanol], in test [2] (setting [4]), the pIC50 is no less than 7.00.

For `Nc1nccc(-c2cccnc2Oc2ccc(Nc3nnc(N4CCC(CO)CC4)c4ccccc34)cc2)n1` [compound 353, (1-(4-((4-((3-(2-amino-4-pyrimidinyl)-2-pyridinyl)oxy)phenyl)amino)-1-phthalazinyl)-4-piperidinyl)methanol], the pIC50 in test [2] (setting [4]) was no less than 7.00.

Regarding `c1ccc(-c2nnc(Nc3ccc(Oc4ncccc4-c4ccnc(N5CCC5)n4)cc3)c3ccccc23)cc1` [compound 294, N-(4-((3-(2-(1-azetidinyl)-4-pyrimidinyl)-2-pyridinyl)oxy)phenyl)-4-phenyl-1-phthalazinamine], the pIC50 in test [2] (setting [4]) is no less than 7.00.

Regarding `C[C@H]1CN(c2nnc(Nc3ccc(Oc4ncccc4-c4ccnc(N)n4)cc3)c3ccccc23)CCN1` [compound 398, N-(4-((3-(2-amino-4-pyrimidinyl)-2-pyridinyl)oxy)phenyl)-4-((3S)-3-methyl-1-piperazinyl)-1-phthalazinamine], the pIC50 in test [2] (setting [4]) is 6.30 to 7.00.

On to `Nc1nccc(-c2cccnc2Oc2ccc(Nc3nnc(N4CCCCC4)c4ccccc34)cc2)n1` [Example 67, N-(4-((3-(2-amino-4-pyrimidinyl)-2-pyridinyl)oxy)phenyl)-4-(1-piperidinyl)-1-phthalazinamine], for which the pIC50 in test [1] (setting [7]) is greater than 6.30.

Turning to `CNc1cc(-c2cccnc2Oc2ccc(Nc3nnc(-c4ccc(F)cc4)c4ccccc34)cn2)ccn1` [Example 60, 2-((5-((4-(4-fluorophenyl)-1-phthalazinyl)amino)-2-pyridinyl)oxy)-N-methyl-3,4'-bipyridin-2'-amine], in test [1] (setting [7]), the pIC50 is greater than 6.30.

Take `c1ccc(-c2nnc(Nc3ccc(Oc4ncccc4-c4ccnc5[nH]ccc45)cc3)c3ccccc23)cc1` [Example 61, 4-phenyl-N-(4-((3-(1H-pyrrolo[2,3-b]pyridin-4-yl)-2-pyridinyl)oxy)phenyl)-1-phthalazinamine]: the pIC50 in test [1] (setting [7]) was greater than 6.30.

In the case of `Cc1csc(-c2cc(C)c(Nc3ccc(Oc4ncccc4-c4ccnc5c4CCCN5)cc3)nn2)n1` [compound 286, 4-methyl-6-(4-methyl-1,3-thiazol-2-yl)-N-(4-((3-(5,6,7,8-tetrahydro-1,8-naphthyridin-4-yl)-2-pyridinyl)oxy)phenyl)-3-pyridazinamine], the pIC50 in test [2] (setting [4]) was 5.60 to 6.30.
